Assay results published in patent US20250269044A1, “PSMA-TARGETED DENDRIMER NANOPLATFORM FOR CANCER DETECTION AND THERAPY” (Washington State University, priority 2024, published 2025).
Values after ≈ are worked out from the molar mass of the structure shown. “Also recorded” adds a separate entry of the source.

Assays:
Aqueous solubility = format: physicochemical
PC3-PIP PSMA (+) cells = assay: CellTiter-Glo Luminescent Cell Viability assay; format: cell-based; conditions: Homo sapiens; for viability at 1 µg/mL: 1 μg/ml; for viability at 1 µg/mL / viability at 10 µg/mL / viability at 1000 µg/mL / EC50: 72 h; for viability at 1 µg/mL / viability at 10 µg/mL / viability at 1000 µg/mL: read-out: viable cells; for viability at 10 µg/mL: 10 μg/ml; for viability at 1000 µg/mL: 1000 μg/ml; for IC50: 72 H, equivalent drug bases, read-out: IC50 anti-proliferative activity; for EC50: nonlinear regression with variable slope
Description: Cell viability: 2.5×10^4 PC3-PIP PSMA (+) cells were allowed to adhere to a 96 well plate overnight. The following day, cell media was changed and the PD-CTT1298-Cabo conjugate, at the concentrations tested, was added along with cabozantinib (Cabo) and hydoxy-cabozantinib (Cabo-OH). The cells were allowed to incubate at 37°° C. for 72H. Following incubation, the luminescence of the viable cells was measured using the CellTiter-Glo® Luminescent Cell Viability assay according to manufacturer's instructions. Cell viability (%) was calculated using the luminescence values obtained from the controls used in the experiment. The experiment was performed in triplicate.
Cell viability. 2.5×10^4 PC3-PIP PSMA (+) cells were allowed to adhere to a 96 well plate overnight. The following day, cell media was changed and the PSMA-2DG-D-Cabo dendrimer, at the concentrations tested, were added along with Cabozantinib (Cabo) and Cabozantinib-7-hydoxy derivative (Cabo-OH). The cells were allowed to incubate at 37° C. for 72 h. Following incubation, the luminescence of the viable cells was measured using the CellTiter-Glo® Luminescent Cell Viability assay (Promega, G7570) according to manufacturer's instructions. The luminescence data was collected using a plate reader. Cell viability (%) was calculated using the luminescence values obtained from the controls used in the experiment. The blank cells served as a positive (+) control while sterile 10% DMSO (Fisher Scientific, BP231) served as the negative (−) control. The experiment was performed in triplicate. A similar experiment was carried out with 2DG-D dendrimer at different concentrations (0.1, 1, 10, 100 and 1000 μg/ml) following the same protocol. The experiments were performed in triplicate, with proper controls. Statistical analyses were performed using a TWO-WAY ANOVA T-Test with unequal variances.

c-Met = c-Met (Homo sapiens, UniProt P08581); assay: c-Met inhibition activities (IC50); format: biochemical; conditions: read-out: c-Met inhibitory activity IC50
c-Met, sequence (P08581 25-1390): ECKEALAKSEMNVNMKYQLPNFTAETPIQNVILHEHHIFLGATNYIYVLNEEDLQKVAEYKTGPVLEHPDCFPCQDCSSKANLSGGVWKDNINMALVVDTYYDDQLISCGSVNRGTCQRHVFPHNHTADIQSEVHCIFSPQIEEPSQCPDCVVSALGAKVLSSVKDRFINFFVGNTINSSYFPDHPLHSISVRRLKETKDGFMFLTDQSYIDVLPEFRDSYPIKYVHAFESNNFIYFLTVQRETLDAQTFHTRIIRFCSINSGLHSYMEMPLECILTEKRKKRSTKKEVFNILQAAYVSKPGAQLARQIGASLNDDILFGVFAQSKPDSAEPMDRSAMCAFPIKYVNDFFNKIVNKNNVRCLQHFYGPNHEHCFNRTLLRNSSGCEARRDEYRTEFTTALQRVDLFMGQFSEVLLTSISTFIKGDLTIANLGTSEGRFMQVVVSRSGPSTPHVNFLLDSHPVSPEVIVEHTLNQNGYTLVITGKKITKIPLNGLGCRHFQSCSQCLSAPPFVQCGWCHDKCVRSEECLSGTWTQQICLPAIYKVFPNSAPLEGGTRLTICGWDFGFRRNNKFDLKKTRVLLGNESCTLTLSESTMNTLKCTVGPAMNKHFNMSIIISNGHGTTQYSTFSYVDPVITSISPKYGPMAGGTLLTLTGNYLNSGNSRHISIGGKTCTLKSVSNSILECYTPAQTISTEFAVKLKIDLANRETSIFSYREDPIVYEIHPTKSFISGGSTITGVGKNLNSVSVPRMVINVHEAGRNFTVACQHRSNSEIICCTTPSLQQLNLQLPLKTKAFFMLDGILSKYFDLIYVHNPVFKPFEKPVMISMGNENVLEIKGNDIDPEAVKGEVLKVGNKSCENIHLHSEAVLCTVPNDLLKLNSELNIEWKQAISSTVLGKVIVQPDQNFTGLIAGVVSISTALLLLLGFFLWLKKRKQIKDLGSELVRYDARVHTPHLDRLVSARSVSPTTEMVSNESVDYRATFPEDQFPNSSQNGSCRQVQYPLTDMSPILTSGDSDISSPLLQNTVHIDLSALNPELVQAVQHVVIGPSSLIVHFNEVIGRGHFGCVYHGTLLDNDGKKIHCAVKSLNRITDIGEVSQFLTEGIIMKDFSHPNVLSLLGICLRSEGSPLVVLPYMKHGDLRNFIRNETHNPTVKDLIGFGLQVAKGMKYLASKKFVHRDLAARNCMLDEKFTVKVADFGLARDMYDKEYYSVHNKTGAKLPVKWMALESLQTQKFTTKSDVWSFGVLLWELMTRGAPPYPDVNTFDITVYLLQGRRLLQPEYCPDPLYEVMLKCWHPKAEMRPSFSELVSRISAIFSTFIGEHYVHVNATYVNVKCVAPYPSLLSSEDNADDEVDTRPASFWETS

In the case of `COc1cc2nccc(Oc3ccc(NC(=O)C4(C(=O)Nc5ccc(F)cc5)CC4)cc3)c2cc1OC` [Cabo, cabozantinib], the “water solubility (in words)” value (Aqueous solubility) is reported as “poor aqueous solubility; also recorded: negligible solubility in water”, the viability at 1 µg/mL (PC3-PIP PSMA (+) cells) is reported as 96.3 ± 4.58% and the viability at 10 µg/mL (PC3-PIP PSMA (+) cells) is reported as 69.2 ± 0.94%. For the same compound, the viability at 1000 µg/mL (PC3-PIP PSMA (+) cells) was 4.17 ± 0.53%, the IC50 (PC3-PIP PSMA (+) cells) was 24.8 ± 2.27 µg/mL and the EC50 (PC3-PIP PSMA (+) cells) was 68 µg/mL (≈ 136 µM).

For `COc1cc2c(Oc3ccc(NC(=O)C4(C(=O)Nc5ccc(F)cc5)CC4)cc3)ccnc2cc1O` [Cabo-OH, hydoxy-cabozantinib], the “water solubility (in words)” value (Aqueous solubility) was “poor aqueous solubility; also recorded: negligible solubility in water”, the viability at 1 µg/mL (PC3-PIP PSMA (+) cells) was 105 ± 6.38% and the viability at 10 µg/mL (PC3-PIP PSMA (+) cells) was 106 ± 3.09%. The viability at 1000 µg/mL (PC3-PIP PSMA (+) cells) was 7.81 ± 0.24%, the IC50 (PC3-PIP PSMA (+) cells) was 77.3 ± 4.35 µg/mL and the EC50 (PC3-PIP PSMA (+) cells) was 69.4 µg/mL (≈ 142 µM). The IC50 (c-Met) was 26.3 nM.
